Assay results as given in ChEMBL document CHEMBL1156206, “Pyrazolone-fused combretastatins and their precursors: synthesis, cytotoxicity, antitubulin activity and molecular modeling studies” (Bioorg Med Chem, 2010).
Calls of active or inactive are those of the source. No cut-off for these calls is given here.

Experiments:
[1] = Inhibition of tubulin polymerization at 20 uM relative to control
[2] = system: HeLa; assay: Cytotoxicity against human HeLa cells after 72 hrs by MTT assay; format: functional, cell-based
[3] = system: SW-620; assay: Cytotoxicity against human SW620 cells after 72 hrs by MTT assay; format: functional, cell-based; conditions: SW-620, 72 h
[4] = system: RT-112; assay: Cytotoxicity against human RT112 cells after 72 hrs by MTT assay; format: functional, cell-based; conditions: RT-112, 72 h
[5] = system: T-24; assay: Cytotoxicity against human T24 cells after 72 hrs by MTT assay; format: functional, cell-based; conditions: T-24, 72 h
[6] = system: MIA PaCa-2; assay: Cytotoxicity against human MIAPaCa2 cells after 72 hrs by MTT assay; format: functional, cell-based; conditions: MIA PaCa-2, 72 h
[7] = system: HEp-2; assay: Cytotoxicity against human Hep2 cells after 72 hrs by MTT assay; format: functional, cell-based; conditions: HEp-2, 72 h
[8] = Inhibition of tubulin polymerization
[9] = system: HEp-2; assay: Cytotoxicity against human cisplatin-resistant Hep2 cells after 72 hrs by MTT assay; format: functional, cell-based; conditions: HEp-2, 72 h
[10] = system: HeLa; assay: Cell cycle arrest in human HeLa cells assessed as accumulation of cells in G2/M phase at 2.2 uM after 24 hrs using propidium iodide by flow cytometry; format: functional
[11] = system: HeLa; assay: Induction of microtubule network disruption in human HeLa cells at 0.02 uM after 24 hrs by immunofluorescence assay; format: functional, cell-based
[12] = system: HeLa; assay: Cell cycle arrest in human HeLa cells assessed as accumulation of cells in G0/1 phase at 0.2 uM after 24 hrs using propidium iodide by flow cytometry; format: functional
[13] = system: HeLa; assay: Induction of microtubule network disruption in human HeLa cells at 2.2 uM after 24 hrs by immunofluorescence assay; format: functional, cell-based
[14] = system: HeLa; assay: Cell cycle arrest in human HeLa cells assessed as accumulation of cells in S phase at 2.2 uM after 24 hrs using propidium iodide by flow cytometry; format: functional
[15] = system: HeLa; assay: Cell cycle arrest in human HeLa cells assessed as accumulation of cells in G2/M phase at 0.02 uM after 24 hrs using propidium iodide by flow cytometry; format: functional
[16] = system: HeLa; assay: Cell cycle arrest in human HeLa cells assessed as accumulation of cells in G0/1 phase at 0.02 uM after 24 hrs using propidium iodide by flow cytometry; format: functional
[17] = system: HeLa; assay: Cell cycle arrest in human HeLa cells assessed as accumulation of cells in S phase at 0.2 uM after 24 hrs using propidium iodide by flow cytometry; format: functional
[18] = system: HeLa; assay: Induction of apoptosis in human HeLa cells assessed as cells containing hypodiploid DNA at 2.2 uM after 24 hrs by flow cytometry; format: functional
[19] = system: HeLa; assay: Cell cycle arrest in human HeLa cells assessed as accumulation of cells in G2/M phase at 0.2 uM after 24 hrs using propidium iodide by flow cytometry; format: functional
[20] = system: HeLa; assay: Cell cycle arrest in human HeLa cells assessed as accumulation of cells in S phase at 0.02 uM after 24 hrs using propidium iodide by flow cytometry; format: functional
[21] = system: HeLa; assay: Induction of microtubule network disruption in human HeLa cells at 0.2 uM after 24 hrs by immunofluorescence assay; format: functional, cell-based
[22] = system: HeLa; assay: Induction of apoptosis in human HeLa cells assessed as cells containing hypodiploid DNA at 0.02 uM after 24 hrs by flow cytometry; format: functional
[23] = system: HeLa; assay: Cell cycle arrest in human HeLa cells assessed as accumulation of cells in G0/1 phase at 2.2 uM after 24 hrs using propidium iodide by flow cytometry; format: functional
[24] = system: HeLa; assay: Induction of apoptosis in human HeLa cells assessed as cells containing hypodiploid DNA at 0.2 uM after 24 hrs by flow cytometry; format: functional
[25] = Homo sapiens, HeLa, 72 h, read-out: IC50

Q: Which inhibition [1] does the source give for `COC(=O)NNC(=O)/C(=C/c1cc(OC)c(OC)cc1OC)c1ccc(OC)c(OC)c1` here?
A: 0%

Q: And the IC50 ([2]; hela)?
A: Not Active

Q: Which inhibition [1] does the source give for `COC(=O)n1[nH]c(=O)c(-c2cc(OC)c(OC)c(OC)c2)c1-c1ccc(OC)cc1` here?
A: 0%

Q: And the IC50 [2, 25]?
A: 959 nM

Q: For `COc1ccc(-c2[nH][nH]c(=O)c2-c2cc(OC)c(OC)c(OC)c2)cc1`, which inhibition [1] is on record?
A: 100%

Q: And the IC50 [3]?
A: 455 nM

Q: What about the IC50 [4] of the same compound?
A: 1890 nM

Q: And the IC50 [5]?
A: 1160 nM

Q: What about the IC50 [6] of the same compound?
A: 575 nM

Q: What about the IC50 [7] of the same compound?
A: 529 nM

Q: And the IC50 [8]?
A: 2600 nM

Q: And the IC50 [9]?
A: 615 nM

Q: And the IC50 [2, 25]?
A: 152 nM

Q: For `COC(=O)n1[nH]c(=O)c(-c2cc(OC)c(OC)c(OC)c2)c1-c1ccc(OC)c(OC(C)=O)c1`, which inhibition [1] is on record?
A: 0%

Q: What about the IC50 [2, 25] of the same compound?
A: 337 nM

Q: Which results are given for `COc1cc(-c2c(-c3cccc(F)c3)[nH][nH]c2=O)cc(OC)c1OC`?
A: inhibition [1]: 0%; IC50 [2, 25]: > 50000 nM

Q: What does the source list for `COC(=O)NNC(=O)/C(=C/c1cccc2ccccc12)c1cc(OC)c(OC)c(OC)c1`?
A: inhibition [1]: 55%; IC50 [2, 25]: 1300 nM

Q: For `COc1ccc(-c2[nH][nH]c(=O)c2-c2cc(OC)c(OC)c(OC)c2)cc1OC`, which inhibition [1] is on record?
A: 31%

Q: And the IC50 [2, 25]?
A: 5270 nM

Q: For `COC(=O)n1[nH]c(=O)c(-c2cc(OC)c(OC)c(OC)c2)c1-c1cccc2ccccc12`, which inhibition [1] is on record?
A: 7%

Q: What about the IC50 [2, 25] of the same compound?
A: > 50000 nM

Q: With `COC(=O)NNC(=O)/C(=C/c1ccc(OC)cc1)c1cc(OC)c(OC)c(OC)c1` as the compound, how does the inhibition [1] read?
A: 26%

Q: And the IC50 [2, 25]?
A: 1310 nM

Q: For `COC(=O)n1[nH]c(=O)c(-c2ccc(OC)c(OC)c2)c1-c1cc(OC)c(OC)c(OC)c1`, which inhibition [1] is on record?
A: 0%

Q: What about the IC50 ([2]; hela) of the same compound?
A: Not Active

Q: Which inhibition [1] does the source give for `COC(=O)NNC(=O)/C(=C/c1ccc(OC)c(F)c1)c1cc(OC)c(OC)c(OC)c1` here?
A: 66%

Q: What about the IC50 [2, 25] of the same compound?
A: 667 nM

Q: What does the source list for `COC(=O)NNC(=O)/C(=C/c1cccc(F)c1)c1cc(OC)c(OC)c(OC)c1`?
A: inhibition [1]: 10%; IC50 [2, 25]: > 50000 nM

Q: For `COC(=O)n1[nH]c(=O)c(-c2cc(OC)c(OC)c(OC)c2)c1-c1ccc2ccccc2c1`, which inhibition [1] is on record?
A: 3%

Q: What about the IC50 [2, 25] of the same compound?
A: 523 nM

Q: Which inhibition [1] does the source give for `COc1cc(-c2c(-c3cccc4ccccc34)[nH][nH]c2=O)cc(OC)c1OC` here?
A: 0%

Q: What about the IC50 [2, 25] of the same compound?
A: > 50000 nM

Q: Which inhibition [1] does the source give for `COc1ccc(-c2c(-c3cc(OC)c(OC)c(OC)c3)[nH][nH]c2=O)cc1OC` here?
A: 4%

Q: And the IC50 [2, 25]?
A: > 50000 nM

Q: Which inhibition [1] does the source give for `COC(=O)NNC(=O)/C(=C/c1cc(OC)c(OC)c(OC)c1)c1ccc(OC)c(OC)c1` here?
A: 0%

Q: What about the IC50 [2, 25] of the same compound?
A: > 50000 nM

Q: For `COc1ccc(/C=C\c2cc(OC)c(OC)c(OC)c2)cc1O` [COMBRETASTATIN A4], which inhibition [1] is on record?
A: 89%

Q: And the Activity [10]?
A: 91.1%

Q: What about the IC50 [3] of the same compound?
A: 23 nM

Q: And the IC50 [4]?
A: 21.6 nM

Q: And the IC50 [5]?
A: 8.7 nM

Q: And the IC50 [6]?
A: 7.2 nM

Q: And the IC50 [7]?
A: 5.5 nM

Q: And the IC50 [8]?
A: 1700 nM

Q: What about the IC50 [9] of the same compound?
A: 5.2 nM

Q: What about the IC50 [2, 25] of the same compound?
A: 2 nM

Q: What about the Activity [11] of the same compound?
A: Active

Q: With `COc1ccc(-c2[nH][nH]c(=O)c2-c2cc(OC)c(OC)c(OC)c2)cc1F` as the compound, how does the inhibition [1] read?
A: 100%

Q: And the IC50 [3]?
A: 487 nM

Q: And the IC50 [4]?
A: 3320 nM

Q: What about the IC50 [5] of the same compound?
A: 1150 nM

Q: What about the IC50 [6] of the same compound?
A: 556 nM

Q: And the IC50 [7]?
A: 1180 nM

Q: What about the IC50 [9] of the same compound?
A: 684 nM

Q: What about the IC50 [2, 25] of the same compound?
A: 158 nM

Q: For `COc1ccc(-c2[nH][nH]c(=O)c2-c2cc(OC)c(OC)c(OC)c2)cc1O`, which inhibition [1] is on record?
A: 99%

Q: What about the IC50 [3] of the same compound?
A: 543 nM

Q: And the IC50 [4]?
A: 2080 nM

Q: What about the IC50 [5] of the same compound?
A: 619 nM

Q: And the IC50 [6]?
A: 462 nM

Q: What about the IC50 [7] of the same compound?
A: 1140 nM

Q: And the IC50 [8]?
A: 1700 nM

Q: What about the IC50 [9] of the same compound?
A: 709 nM

Q: And the IC50 [2, 25]?
A: 176 nM

Q: Which results are given for `COc1ccc(-c2c(-c3cc(OC)c(OC)cc3OC)[nH][nH]c2=O)cc1OC`?
A: inhibition [1]: 0%; IC50 [2, 25]: > 50000 nM

Q: What does the source list for `COC(=O)NNC(=O)/C(=C/c1ccc(OC)c(OC(C)=O)c1)c1cc(OC)c(OC)c(OC)c1`?
A: inhibition [1]: 25%; IC50 [2, 25]: 498 nM

Q: Which inhibition [1] does the source give for `COC(=O)n1[nH]c(=O)c(-c2cc(OC)c(OC)c(OC)c2)c1-c1ccc(OC)c(OC)c1` here?
A: 3%

Q: And the IC50 [2, 25]?
A: 36300 nM

Q: Which results are given for `COC(=O)n1[nH]c(=O)c(-c2cc(OC)c(OC)c(OC)c2)c1-c1cccc(F)c1`?
A: inhibition [1]: 1%; IC50 ([2]; hela): Not Active

Q: For `COC(=O)NNC(=O)/C(=C/c1ccc2ccccc2c1)c1cc(OC)c(OC)c(OC)c1`, which inhibition [1] is on record?
A: 97%

Q: What about the Activity [12] of the same compound?
A: 2.7%

Q: And the Activity [13]?
A: Active

Q: And the Activity [14]?
A: 7.9%

Q: What about the Activity [15] of the same compound?
A: 11.5%

Q: What about the Activity [16] of the same compound?
A: 60.2%

Q: What about the Activity [10] of the same compound?
A: 90.5%

Q: And the IC50 [3]?
A: 74.3 nM

Q: What about the IC50 [4] of the same compound?
A: 196 nM

Q: What about the Activity [17] of the same compound?
A: 10.8%

Q: And the IC50 [5]?
A: 185 nM

Q: And the IC50 [6]?
A: 127 nM

Q: What about the Activity [18] of the same compound?
A: 21.4%

Q: And the IC50 [7]?
A: 54 nM

Q: And the Activity [19]?
A: 86.6%

Q: And the Activity [20]?
A: 28.3%

Q: What about the IC50 [8] of the same compound?
A: 2700 nM

Q: What about the Activity [21] of the same compound?
A: Active

Q: And the IC50 [9]?
A: 51 nM

Q: And the IC50 [2, 25]?
A: 48 nM

Q: And the Activity [22]?
A: 6.9%

Q: And the Activity [11]?
A: inactive

Q: What about the Activity [23] of the same compound?
A: 1.2%

Q: And the Activity [24]?
A: 21.1%

Q: For `COC(=O)n1[nH]c(=O)c(-c2ccc(OC)c(OC)c2)c1-c1cc(OC)c(OC)cc1OC`, which inhibition [1] is on record?
A: 2%

Q: And the IC50 ([2]; hela)?
A: Not Active

Q: With `COc1cc(-c2c(-c3ccc4ccccc4c3)[nH][nH]c2=O)cc(OC)c1OC` as the compound, how does the inhibition [1] read?
A: 98%

Q: What about the IC50 [8] of the same compound?
A: 1900 nM

Q: And the IC50 [2, 25]?
A: 114 nM

Q: With `COC(=O)n1[nH]c(=O)c(-c2cc(OC)c(OC)c(OC)c2)c1-c1ccc(OC)c(F)c1` as the compound, how does the inhibition [1] read?
A: 9%

Q: What about the IC50 [2, 25] of the same compound?
A: 1720 nM

Q: With `COC(=O)NNC(=O)/C(=C/c1ccc(OC)c(OC)c1)c1cc(OC)c(OC)c(OC)c1` as the compound, how does the inhibition [1] read?
A: 0%

Q: What about the IC50 [2, 25] of the same compound?
A: > 50000 nM
